According to PMC6337497 (International Journal of Molecular Sciences, 2018):

Key:
[1] = pH-metric titration, acid-base behavior (UV-vis, HypSpec); type: physicochemical; settings: pH 7
Method: pH-metric titrations were performed in order to assess K3F acidity and predict the most abundant species in physiological condition. […] Overall protonation constants (βHL) were calculated from spectrophotometric data and optimized by means of HypSpec software (Supplementary Table S1). K3F23, K3F24 and K3F33 behaved as weak monoprotic acids, with a pKa value close to 8–8.50 associated to the keto-enol moiety. As for the other two ligands, namely K3F21 and K3F31, the acid-base equilibria were more complex in view of the polyprotic nature of the compounds, and three logβLH values were calculated. Species distribution curves (Supplementary Figure S2) provided reliable prediction of neutral and charged forms as function of pH, and consequently helped to envisage cell penetration and distribution in physiological conditions. […] As for K3F21 and K3F31, they behaved as less weak acids, in fact at pH 7 58% of K3F21 and 65% of K3F31 were found in the mono-dissociated negatively charged form (H2L^−), these percentages increased up to 74% and 86% respectively at pH 7.4. […] This outcome could be attributed to the stabilizing effect of the intramolecular hydrogen bond between the methoxyl and hydroxyl groups on the aromatic ring in the indissociated form of K3F21, which shifts the equilibrium in favor of the neutral species (H3L).
UV-vis spectrophotometric measurements were performed using Jasco V-570 spectrophotometer at 25.0 ± 0.1 °C in the 200–600 nm spectral range employing 1 cm quartz cells. Owing to the poor water solubility of the compounds, a methanol mother solution (5 × 10^−3 M) was diluted in water in order to give 50 µM solutions used for pH-metric titrations. The pH value was varied by adding small amounts of concentrated NaOH or HCl, 25 points in the pH range 3–10. A constant ionic strength of 0.1 M (NaNO3) was maintained in all the experiments. Each titration was performed at least three times. The overall protonation constants (logβLH) were evaluated from spectrophotometric data using the software HypSpec.

PC3 cells [2] = assay: RT-qPCR gene transcription, PC3; type: cell-based, Human; settings: PC3, 48 h at GI50 dose
Method: (§1) Data are presented as relative transcript levels, normalized with RPL21 housekeeping gene, with DMSO levels arbitrarily set at 1.
(§2) RNA was extracted from cells using RNeasy kit (Qiagen, Venlo, The Netherlands) and reversed transcribed with a Moloney murine leukemia virus reverse transcriptase (Promega, Madison, WI, USA). Quantitative real-time PCRs were performed using SsoAdvanced Universal SYBR Green Supermix (Bio-Rad, Hercules, CA, USA) on a Bio-Rad CFX Connect™ real-time PCR detection system. Primer sequences are available upon request. The housekeeping gene Rpl21 was used as a loading control. The relative fold change enrichments of real-time PCR samples were calculated with the formula 2^−(ΔΔCt), where −(ΔΔCt) = −[(Ct target − Ct Rpl21)treated − (Ct target − Ct Rpl21)DMSO].

DU145 cells [3] = assay: RT-qPCR gene transcription, DU145; type: cell-based, Human; settings: DU145, 48 h at GI50 dose
Method: as §1, §2

PC3 cells [4] = assay: Western blot of total cellular lysates, PC3; type: cell-based, Human; settings: PC3, 48 h at GI50 dose
Method: Actin was used as loading control. Whole-cell protein extracts were prepared by resuspending cells into 1X SDS sample buffer (25 mM Tris-HCl pH 6.8, 1.5 mM EDTA, 20% glycerol, 2% SDS, 5% β-mercaptoethanol, 0.0025% Bromophenol blue). Equivalent amounts of cellular extracts were resolved by SDS-PAGE, electrotransferred to PVDF membrane (GE Healthcare Italia, Milan, Italy) and immunoblotted with the following primary antibodies: anti-phospo-H2AX (sc-101696), anti-p53 (DO1) (sc-126), anti-actin ([MUT]) (sc-1616) and anti-PARP (sc-8007) antibody from Santa Cruz Biotecnology, Inc, Dallas, TX, USA.; phospho-specific AKT antibody S473 (#9018) and T308 (#9275), Akt antibody (#9272 and #2967), phospho-specific ERK1/2 antibody T202/Y204 (#4370), ERK1/2 antibody (#4669), phospho-specific p38 MAPK antibody T180/Y182 (#9211), and p38 antibody (#9212) were purchased from Cell Signaling Technologies, Danvers, MA, USA. Membranes were blotted and scanned with Bio-Rad ChemiDocTM Touch Imaging System (Bio-Rad, Hercules, CA, USA), using chemiluminescent detection reagents from Cyanagen, Bologna, Italy (Westar ηC and Supernova HRP substrates for Western blotting).

DU145 cells [5] = assay: Cell migration (wound) assay, DU145; type: cell-based, Human; settings: DU145, GI50 dose, 16 h
Method: 4 × 10^5 prostate cancer cells were plated in a 12-well plate. Approximately 24 h later, when the cells were 100% confluent, the monolayer was scratched using a 200 µL pipette tip. […] Three biological replicates were performed. Three random pictures were taken for each treated well per experiment and the areas of the wounds measured using ImageJ software. The percentage of wound recovery was then calculated using the formula: (final area-initial area)/initial area × 100%.

PC3 cells [6] = assay: Anchorage-dependent colony formation assay, PC3; type: cell-based, Human
Method: (§3) For anchorage-dependent colony formation assay, 1000 PC3 or 500 DU145 cells were plated in 6-well plates. […] After 7–10 days, the plates were washed, fixed and stained with 0.5% crystal violet solution in 20% Methanol. […] Colony numbers were normalized as a percentage of colonies formed following DMSO treatment.

DU145 cells [7] = assay: Anchorage-dependent colony formation assay, DU145; type: cell-based, Human; settings: DU145, 10 days, different doses
Method: as §3

PC3 cells [8] = assay: Anchorage-independent colony formation assay, PC3; type: cell-based, Human; settings: PC3, 5 µM
Method: (§4) For anchorage-independent colony formation assay, 0.6% low melt agarose gel with 10% FBS in appropriate complete cell growth medium was prepared and added to the wells of a twelve-well culture dish as a base agar. […] PC3 and DU145 cells were allowed to grow at 37 °C for three weeks (PC3) or five weeks (DU145). The effect of the drugs on anchorage-independent growth was determined by colony growth. Colonies were stained with 0.07% crystal violet and formed colonies were imaged. The numbers of colonies with radius ≥ 7 pixels were counted with automated colony counter (OpenCFU 3.9.0) and average number of colonies was plotted against drug concentrations. Colony numbers were normalized as a percentage of colonies formed following DMSO treatment.

DU145 cells [9] = assay: Anchorage-independent colony formation assay, DU145; type: cell-based, Human; settings: DU145, 10 µM
Method: as §4

[10] = compared to curcumin and control cells

With COc1cc(/C=C/C(=O)C(CCCN2C(=O)c3ccccc3C2=O)C(=O)/C=C/c2ccc(O)c(OC)c2)ccc1O [K3F21] the “mono-dissociated negatively charged form (H2L−)” value [1] was 58%, the “Bcl-2 / Bcl-xl transcription” value (PC3 cells [2]) was “Bcl-2, but not Bcl-xl, was weakly repressed” and the Noxa transcription (PC3 cells [2]) was “induced”. The Puma transcription (PC3 cells [2]) was “increased exclusively following K3F21 administration”, the “transcription of CDK inhibitors p21 and p27” value (PC3 cells [2]) was “increased” and the “transcription of Cdc2, CyclinB1, CyclinB2, and CyclinD1 cell cycle genes” value (PC3 cells [2]; [10]) was “general decrease, though not always significant”. For the same compound, the EGFR expression (DU145 cells [3]) was “reduced”, the Noxa transcription (DU145 cells [3]) was “induced” and the Puma transcription (DU145 cells [3]) was “increased exclusively following K3F21 administration”. The “transcription of CDK inhibitors p21 and p27” value (DU145 cells [3]) was “raised only after K3F21 treatment”, the “transcription of Cdc2, CyclinB1, CyclinB2, and CyclinD1 cell cycle genes” value (DU145 cells [3]; [10]) was “general decrease, though not always significant” and the ERK1/2 phosphorylation (PC3 cells [4]) was “increased”. For the same compound, the phospho-p38 expression (PC3 cells [4]) was “inhibited”, the “phosphorylation of AKT in Ser473 and Thr308” value (PC3 cells [4]) was “inhibited” and the “γH2AX expression (marker of DNA damage)” value (PC3 cells [4]) was “triggered DNA damage”. For the same compound, the “cell migration (wound recovery)” value (DU145 cells [5]) was “exerted inhibitory effects on the migratory capacity”, the anchorage-dependent colony formation (PC3 cells [6]; PC3, 5 µM) was “quite completely abolished” and the anchorage-dependent colony growth (PC3 cells [6]; PC3, 7 days, different doses) was “clearly inhibited cell growth when administered at lower concentrations than curcumin”. The anchorage-dependent colony growth (DU145 cells [7]) was “clearly inhibited cell growth when administered at lower concentrations than curcumin”, the “decrease in colony formation, anchorage-independent” value (PC3 cells [8]) was “up to 95%” and the “decrease in colony formation, anchorage-independent” value (DU145 cells [9]) was “up to 95%”.
